According to US20220098197A1, “SALTS OF HETEROCYCLIC COMPOUND AND USE THEREOF” (priority 2019, published 2022):
In brackets after ≈: the same amount, converted by molar mass. Several values for one entry are separate records, joined by “and”; a condition that tells them apart may be missing. Equal values may be shown once. Read-outs that look alike come from different tables or passages of the source.

Columns and labels:
[1] = Stability test (influencing factors: light, high temperature, high humidity); type: physicochemical; conditions: for stability under high temperature and high humidity conditions (in words): 60° C., 92.5% RH
Description: Test process: An appropriate amount of each test sample was placed on a clean watch glass without a lid and then placed under the conditions of light 4500 lx±500 lx, high temperature of 60° C., high humidity of 92.5% RH for 5 days and 10 days, respectively. The properties and related substances were determined and the results were compared with the results at day 0 to observe the stability.
The test method for related substances was as follows.
Preparation of test sample solution: About 10 mg of each test sample was placed in a 10 ml volumetric flask, and 50% acetonitrile aqueous solution was added to dissolve sample, and diluted to the mark, shaken well, and filtered to obtain the test sample solution. A precise amount of 10 μl of the test sample solution was taken and injected according to the above chromatographic method, and the maximum single impurity and total impurity were calculated according to the area normalization method.

[2] = Dissolution test of capsules (Chinese Pharmacopoeia 2015, General Method 0931, 2nd Method); type: physicochemical; conditions: for Dissolution rate, Mean (%), 5 min / Dissolution rate, Mean (%), 10 min / Dissolution rate, Mean (%), 15 min / Dissolution rate, Mean (%), 20 min / Dissolution rate, Mean (%), 30 min / Dissolution rate, Mean (%), 45 min: mean of 6 capsules; for Dissolution rate, Mean (%), 5 min / Dissolution rate, Mean (%), 10 min / Dissolution rate, Mean (%), 15 min / Dissolution rate, Mean (%), 20 min / Dissolution rate, Mean (%), 30 min / Dissolution rate, Mean (%), 45 min / Dissolution rate, 5 min / Dissolution rate, 10 min / Dissolution rate, 15 min / Dissolution rate, 20 min / Dissolution rate, 30 min / Dissolution rate, 45 min: purified water, 50 rpm; for Dissolution rate, 5 min / Dissolution rate, 10 min / Dissolution rate, 15 min / Dissolution rate, 20 min / Dissolution rate, 30 min / Dissolution rate, 45 min: single capsules 1-6, hydrate
Description: The hydrates obtained hereinabove and the compound of formula A were tested for dissolution rate. The test method was as follows.
Step 1: Pretreating Raw Materials
The samples were passed through a 100 mesh sieve.
Step 2: Blending Raw Materials with Auxiliary Materials
The raw materials and lactose were weighed according to the prescription, mixed in equal increment, sieved and mixed.
The capsules were filled via a capsule filling plate and sealed. The difference of the filling amount was controlled to ±5%. The appearance was inspected to ensure that the sealing was correct and there was no split or deformation.
Test method: dissolution test method (Chinese Pharmacopoeia, edited in 2015, Chapter 4, General Method 0931, the 2nd Method)
Dissolution medium: aqueous solution
Specific test method: The sample was tested following the dissolution test method (Chinese Pharmacopoeia, edited in 2015, Chapter 4, General Method 0931, the 2nd Method). 900 ml aqueous solution was used as the dissolution medium. The speed was 50 rpm. The test was performed in accordance with the method. […] After filtration, the filtrate was precisely measured and quantitatively diluted with the dissolution medium to prepare a solution containing about 10 μg of sample per 1 ml. The absorbance was measured by at 231 nm by UV-Vis spectrophotometry (Chinese Pharmacopoeia, edited in 2015, Chapter 4, General Method 0931, the 2nd Method). An appropriate amount of the control sample was taken, weighed accurately, dissolved in dissolution medium and diluted quantitatively to prepare a solution containing about 10 μg of the sample per 1 ml, and then measured in the same way. The amount of dissolution per capsule was calculated.

[3] = Solubility test in media with different pH; type: physicochemical; conditions: for solubility: thermodynamic from solid, room temperature of 25° C.
Description: The hydrates obtained as above and the compound of formula A were tested for solubility in solutions with different pH. The test method was as follows.
1.1. Preparation of the Media with Different pH
pH1.0 medium: 9.0 mL of hydrochloric acid was diluted to 1000 mL with water and shaken well to obtain the medium.
pH4.5 medium: 6.80 g of potassium dihydrogen phosphate (KH2PO4) was dissolved in water and diluted to 1000 mL, adjusted to pH4.5 with phosphoric acid or sodium hydroxide, and shaken well to obtain the medium.
pH6.8 medium: 55.38 g of disodium hydrogen phosphate (Na2HPO4.12H2O) and 4.77 g of citric acid (C6H8O7.H2O) were dissolved in water and diluted to 1000 mL, adjusted to pH6.8 with phosphoric acid or sodium hydroxide, and shaken well to obtain the medium.
Pure water medium: purified water.
Test method: To a certain amount of test samples, the media with different pH were added gradually, respectively. The mixture was shaken continuously until it reached saturation. The weighing amount of the test sample and the amount of solvent were recorded and the concentration when the sample was dissolved was calculated.

[4] = system: neutrophils; assay: PGD2-induced neutrophils migration, Boyden chamber assay (Example 1); type: cell-based, mice; conditions: pretreatment CT-NA 1 and 10 μM (p<0.01) or OC459; PGD2 1 μM; 4 hrs
Description: The mice were intragastrically administered glycogen (1.5%) at the dose range of 20 ml/kg of body weight. 4 hrs later, the mice were euthanized to isolate neutrophils from the peritoneal lavage. The effect of CT-NA on neutrophils migration was detected by using the Boyden chamber assay kit (3 μm pore size). PGD2 was used as a chemoattractant because the activated PGD2/CRTH2 receptors promoted the migration of neutrophils. Initially, the isolated neutrophils (4×10^5) were diluted in 100 μL HBSS and allowed to migrate toward PGD2 (0.1, 1 and 10 μM) for 4 hrs to find out the suitable PGD2 concentration. Then, the isolated neutrophils (4×10^5) were pretreated with CT-NA (1 and 10 μM), and their migration to PGD2 (1 μM) was evaluated by counting the migrated neutrophils. Moreover, another potent CRTH2 inhibitor OC459 was used to countercheck the outcomes of CT-NA.

[5] = system: neutrophils; assay: PGD2-induced neutrophils migration in vitro, Boyden chamber (Example 2); type: cell-based, mice; conditions: pretreatment CT-NA 1 μM or 10 μM, OC459 10 μM; 4 hrs; P<0.01
Description: The method for isolating neutrophils and testing effect of CT-NA on neutrophils migration was briefly described as follows. 1.5% glycogen was injected intragastrically into mice at a dose of 20 ml/kg body weight. 4 hrs later, the mice were euthanized to isolate neutrophils from the peritoneal lavage. Effect of CT-NA on the migration of neutrophils was detected using the Boyden chamber assay kit (3 um pore size, Billerica, Mass.). PGD2 was used as a chemoattractant because the activated PGD2/CRTH2 receptors promoted the neutrophils migration. Firstly, the isolated neutrophils were inoculated at 4×10^5 cells/ml into the upper side of well of the Boyden chamber, and the lower chamber contained different concentrations of PGD2 (0.1, 1 and 10 μM), and the neutrophils were allowed to migrate towards PGD2 for 4 hrs at 37° C. in order to find out the suitable PGD2 concentration. After evaluation of the suitable PGD2 concentration, the migration of neutrophils pretreated with CT-NA (1 and 10 μM) and OC459 (10 μM), another effective CRTH2 inhibitor, toward PGD2 (1 μM) was assessed for 4 hrs.

[6] = high temperature 60° C., Day 10
[7] = light condition 4500 lx±500 lx, Day 5
[8] = light condition 4500 lx±500 lx, Day 10

CN([C@@H]1CCc2c(CC(=O)O)c3cccnc3n2C1)S(=O)(=O)c1ccc(F)cc1 (racemic) [Compound A]
stability under high temperature and high humidity conditions (in words) ([1]; 5 and 10 days): relatively stable
maximum single impurity % ([1]; Day 0): 0.08%
property ([1]; Day 0): white powder
total impurity % ([1]; Day 0): 0.32%
maximum single impurity % ([1]; high humidity 92.5% RH, Day 5): 0.08%
property ([1]; high humidity 92.5% RH, Day 5): white powder
total impurity % ([1]; high humidity 92.5% RH, Day 5): 0.31%
maximum single impurity % ([1]; high humidity 92.5% RH, Day 10): 0.07%
property ([1]; high humidity 92.5% RH, Day 10): white powder
total impurity % ([1]; high humidity 92.5% RH, Day 10): 0.26%
maximum single impurity % ([1]; high temperature 60° C., Day 5): 0.07%
property ([1]; high temperature 60° C., Day 5): white powder
total impurity % ([1]; high temperature 60° C., Day 5): 0.24%
maximum single impurity % [1, 6]: 0.08%
property [1, 6]: white powder
total impurity % [1, 6]: 0.25%
stability under light condition (in words) ([1]; light 4500 lx±500 lx, 5 and 10 days): degrades significantly
maximum single impurity % [1, 7]: 4.66%
property [1, 7]: light yellow powder
total impurity % [1, 7]: 5.28%
maximum single impurity % [1, 8]: 15.02%
property [1, 8]: light yellow powder
total impurity % [1, 8]: 15.25%
dissolution rate (in words) ([2]; same method, aqueous dissolution medium): basically zero
water solubility at different pH (comparison in words) ([3]; pH 1.0, 4.5, 6.8 and purified water): poor water solubility
solubility ([3]; pH 1.0 medium (dilute hydrochloric acid), pH 1, simulated gastric fluid, pH1.0 medium, read-out: Solubility, pH = 1.0): 1.25 µg/mL (≈ 2.99 µM)
solubility ([3]; pH 4.5 medium (potassium dihydrogen phosphate solution), pH 4.5, aqueous buffer, pH4.5 medium, read-out: Solubility, pH = 4.5): 1.67 µg/mL (≈ 4 µM)
solubility ([3]; pH 6.8, aqueous buffer, pH6.8 medium, read-out: Solubility, pH = 6.8): 2 µg/mL (≈ 4.79 µM)
solubility ([3]; purified water, read-out: Solubility, purified water): 2 µg/mL (≈ 4.79 µM)
solubility in water (in words) ([3]; water): insoluble in water

CN([C@@H]1CCc2c(CC(=O)[O-])c3cccnc3n2C1)S(=O)(=O)c1ccc(F)cc1.[Li+] [Lithium salt hydrate]
stability under high temperature and high humidity conditions (in words) ([1]; 5 and 10 days): relatively stable
maximum single impurity % ([1]; Day 0): 0.59%
property ([1]; Day 0): white powder
total impurity % ([1]; Day 0): 0.87%
maximum single impurity % ([1]; high humidity 92.5% RH, Day 5): 0.55%
property ([1]; high humidity 92.5% RH, Day 5): white powder
total impurity % ([1]; high humidity 92.5% RH, Day 5): 0.72%
maximum single impurity % ([1]; high humidity 92.5% RH, Day 10): 0.56%
property ([1]; high humidity 92.5% RH, Day 10): white powder
total impurity % ([1]; high humidity 92.5% RH, Day 10): 0.76%
maximum single impurity % ([1]; high temperature 60° C., Day 5): 0.56%
property ([1]; high temperature 60° C., Day 5): white powder
total impurity % ([1]; high temperature 60° C., Day 5): 0.79%
maximum single impurity % [1, 6]: 0.56%
property [1, 6]: white powder
total impurity % [1, 6]: 0.78%
maximum single impurity % [1, 7]: 0.61%
property [1, 7]: light yellow powder
total impurity % [1, 7]: 0.93%
maximum single impurity % [1, 8]: 0.78%
property [1, 8]: light yellow powder
total impurity % [1, 8]: 1.21%
Dissolution rate, Mean (%), 5 min [2]: 34.6%
Dissolution rate, Mean (%), 10 min [2]: 67.4%
Dissolution rate, Mean (%), 15 min [2]: 79.8%
Dissolution rate, Mean (%), 20 min [2]: 85.3%
Dissolution rate, Mean (%), 30 min [2]: 85.2%
Dissolution rate, Mean (%), 45 min [2]: 85.7%
Dissolution rate, 5 min [2]: 36.5% and 42.6% and 34.7% and 34.4% and 35.6% and 23.9%
Dissolution rate, 10 min [2]: 78.7% and 75.4% and 74.4% and 60.4% and 74.8% and 40.4%
Dissolution rate, 15 min [2]: 83.6% and 82.7% and 83.4% and 81.4% and 81.3% and 66.1%
Dissolution rate, 20 min [2]: 84.3% and 87% and 85.9% and 84.9% and 85.5% and 84.4%
Dissolution rate, 30 min [2]: 85.9% and 85.2% and 85.8% and 84.6% and 84.4% and 85.3%
Dissolution rate, 45 min [2]: 85.5% and 85.6% and 88.3% and 84.2% and 85.3%

Cc1c(Cc2ccc3ccccc3n2)c2cc(F)ccc2n1CC(=O)O [OC459, reference compound]
PGD2-induced neutrophils migration [4]: inhibited
neutrophils migration induced by 1 μM PGD2 [5]: significantly reduced

CN([C@@H]1CCc2c(CC(=O)[O-])c3cccnc3n2C1)S(=O)(=O)c1ccc(F)cc1.[K+] [Potassium salt hydrate]
stability under high temperature and high humidity conditions (in words) ([1]; 5 and 10 days): relatively stable
maximum single impurity % ([1]; Day 0): 0.34%
property ([1]; Day 0): white powder
total impurity % ([1]; Day 0): 0.49%
maximum single impurity % ([1]; high humidity 92.5% RH, Day 5): 0.34%
property ([1]; high humidity 92.5% RH, Day 5): Molten solid
total impurity % ([1]; high humidity 92.5% RH, Day 5): 0.45%
maximum single impurity % ([1]; high humidity 92.5% RH, Day 10): 0.31%
property ([1]; high humidity 92.5% RH, Day 10): colorless liquid
total impurity % ([1]; high humidity 92.5% RH, Day 10): 0.48%
maximum single impurity % ([1]; high temperature 60° C., Day 5): 0.34%
property ([1]; high temperature 60° C., Day 5): white powder
total impurity % ([1]; high temperature 60° C., Day 5): 0.45%
maximum single impurity % [1, 6]: 0.33%
property [1, 6]: white powder
total impurity % [1, 6]: 0.45%
maximum single impurity % [1, 7]: 0.33%
property [1, 7]: light yellow powder
total impurity % [1, 7]: 0.72%
maximum single impurity % [1, 8]: 0.33%
property [1, 8]: light yellow powder
total impurity % [1, 8]: 0.88%
Dissolution rate, Mean (%), 5 min [2]: 31.6%
Dissolution rate, Mean (%), 10 min [2]: 74.1%
Dissolution rate, Mean (%), 15 min [2]: 83.0%
Dissolution rate, Mean (%), 20 min [2]: 85.6%
Dissolution rate, Mean (%), 30 min [2]: 87.0%
Dissolution rate, Mean (%), 45 min [2]: 86.9%
Dissolution rate, 5 min [2]: 30.7% and 28.9% and 24.1% and 34.9% and 41.7% and 29.6%
Dissolution rate, 10 min [2]: 80.4% and 53.3% and 81.5% and 72.3% and 77.6% and 79.2%
Dissolution rate, 15 min [2]: 83.7% and 80.8% and 87.4% and 84.4% and 79.5% and 82.1%
Dissolution rate, 20 min [2]: 86.4% and 83.1% and 89.2% and 87.8% and 83.0% and 84.1%
Dissolution rate, 30 min [2]: 86.9% and 86.7% and 90.2% and 87.4% and 85.0% and 85.6%
Dissolution rate, 45 min [2]: 85.6% and 86.7% and 91.3% and 87.0% and 85.8% and 84.9%
